The source of these data is US20250241906A1, “ANABOLIC DRUGS STIMULATING TYPE II COLLAGEN PRODUCTION FROM CHONDROCYTES OR THEIR PROGENITORS” (UNIVERSITY OF CENTRAL FLORIDA RESEARCH FOUNDATION, INC., priority 2022, published 2025).

“Also recorded” adds a separate entry of the source. Like-named read-outs stand apart in the source and are kept apart here.

For one series, the system named is Plasmodium falciparum. The conditions noted are these: cited from earlier work.
Series [1] relates to type II collagen promoter (COL2A1-Gaussia luciferase) in primary human chondrocytes. The series can be described thus: HuCol2gLuc 3D aggregate type II collagen promoter-driven Gaussia luciferase assay. It is filed as cell-based. The conditions noted are these: for stimulation of type II collagen production in the screen of natural products: NCI Natural Products Set V, 5 μM continuously, 22-day assay; for cumulative luminescence: validation. Here is the method:
Chondrogenic Culture. Human COL2A1-GLuc or uninfected cells were thawed and seeded in growth media on synoviocyte matrix at 6,000 cells/cm^2 and expanded to 90-100% confluence in physioxia. Cells were trypsinized (0.25% Trypsin/EDTA; Corning), resuspended in growth media (for monolayer culture) or chondrogenic differentiation media for 3D aggregates (93.24% High-Glucose DMEM (Gibco), 1% dexamethasone 10^−5M (Sigma), 1% ITS+premix (Becton-Dickinson), 1% Glutamax (Hyclone), 1% 100 mM Sodium Pyruvate (Hyclone), 1% MEM Non-Essential Amino Acids (Hyclone), 0.26% L-Ascorbic Acid Phosphate 50 mM (Wako), 0.5% Fungizone (Life Technologies) with TGF-β1 (Peprotech) and seeded as described below.
Generation and Maintenance of 3D aggregates. To generate 3D aggregates, cells were seeded at 50,000 cells per well (in 96-well cell repellent u-bottom plates, GreinerBio) and then centrifuged at 500 RCF, 5 min. For the initial drug screen, aggregates were cultured in basal chondrogenic media (1 ng/ml TGF-β1) alone, with DMSO (vehicle control) or 5 μM of the drug compounds from the NCI library (Natural Products V, NCI). For candidate validation and subsequent studies aggregates were cultured in basal chondrogenic media (10 ng/ml TGF-β1) alone, with DMSO (vehicle control) or compounds as indicated in the results. Aggregates were cultured for three weeks in physioxic conditions, culture medium was sampled and replaced three times a week with fresh medium. An OT-2 (Opentrons) python coded robotic pipette, programmed at an aspiration height of 2 mm from the bottom of the wells and aspiration rate of 40 μl/s was utilized for addition of compound, cell feeding, and media sampling for luciferase assay. After three weeks, cell aggregates were either fixed in neutral buffered formalin for histology or medium removed and aggregates frozen dry (−20° C.) for biochemical assays.
Luciferase Assay. Conditioned culture medium sampled from aggregates in 96-wells (20 μL/well) was assessed using a stabilized Gaussia Luciferase buffer mix (50 µl/well) for a final concentration of 0.09 M MES, 0.15M Ascorbic Acid, and 4.2 μM Coelenterazine in white 96-well plates. Luminescence was measured in a plate reader (25° C., relative light units (RLU), En Vision plate reader). An OT-2 (Opentrons) python coded robotic pipette was utilized for luciferase buffer addition to white plates (GreinerBio).

Series [2] deals with HuCol2gLuc aggregates. The series can be described thus: Biochemical assays (DNA, GAG, total collagen) on HuCol2gLuc aggregates. It is filed as cell-based, human. Here is the method: Biochemical Assays. Aggregates frozen at day 22, were thawed with PBS, and digested with Papain (25 μg/ml, Sigma, P4762, in 2 mM cysteine; 50 mM sodium phosphate; 2 mM EDTA at a pH 6.5, 100 μl) at 65° C. overnight. Plates were sealed with a qPCR adhesive sealing film (USA Scientific), a silicone sheet, and steel plates clamped to the plate to prevent evaporation during digestion. Half of the digest (50 μl) was transferred to another plate and frozen for hydroxyproline assessment. In the remaining digest, papain was inactivated with 0.1M sodium hydroxide (NaOH, 50 μl) followed by NaOH neutralization (100 mM Na2HPO4, 0.1 N HCL, pH 1.82, 50 μl). To quantitate DNA content, samples of the neutralized digest (20 μl) were combined with buffered Hoechst dye (#33258, 667 ng/ml, phosphate buffer pH 8, 100 μl) and fluorescence measured at an excitation of 365 nm and emission of 460 nm. For GAG assessment, 1,9-Dimethyl-methylene blue solution (195 μl) was added to neutralized digests (5 μl) and absorbance measured at 595 nm and 525 nm. Readings were corrected by subtracting 595 nm reading from 525 nm. Micrograms of DNA and GAG were calculated using a Calf thymus DNA standard (Sigma) or Chondroitin Sulfate standard (Seikagaku Corp.), respectively.
For hydroxyproline (HP) quantification, the frozen digests (50 μl) were thawed at room temperature and incubated overnight at 105° C. with 6M hydrochloric acid (200 μl). Plates were sealed to prevent evaporation. Samples were then dried at 70° C. overnight with a hydroxyproline standard (Sigma). Copper sulfate (0.15 M, 10 μl) and NaOH (2.5 M, 10 μl) were added to each well and incubated at 50° C. for 5 minutes, followed by hydrogen peroxide (6%, 10 μl) for 10 minutes. Sulfuric acid (1.5 M, 40 μl) and Ehrlich's reagent (20 μl) were added and samples incubated at 70° C. for 15 minutes. Absorbance was measured at 505 nm. Micrograms of hydroxyproline were calculated using the standard. Total collagen was calculated by the following formula (μg of HP×7.6=μg Total Collagen).

Another series concerns KB cell line. Particulars: cited from earlier work.
Series [3] has as its system kinase phosphorylation in primary human chondrocytes. Briefly: Phospho-kinase array on primary human chondrocyte lysate. It is filed as cell-based. The conditions noted are these: donor 2, 24 h, vs DMSO. The protocol: Phospho-kinase Array. Primary human chondrocytes were seeded at 5×10^6 cells (2×10 cm adherent dish, Corning) in growth media and allowed to adhere overnight. Growth media was replaced with chondrogenic media supplemented with 1 ng/mL TGFβ1 with DMSO or with drug […]. Cells were treated for 24 h before processing according to the manufacturer's protocol (ARY003C, R&D Systems). This phospho-kinase array contains capture antibodies to measure relative levels of phosphorylation of 37 kinases on a nitrocellulose membrane. Signal intensity was quantified using ImageJ.

Another series concerns the target butyrylcholinesterase (Homo sapiens, UniProt P06276). Particulars: cited from earlier work.
Series [4] relates to HuCol2gLuc aggregates. The series can be described thus: Metabolic assay (resazurin) on HuCol2gLuc aggregates. The conditions noted are these: day 22. It is filed as cell-based, human. Here is the method:
Metabolic Assay (Resazurin). Metabolic activity was assessed on day 22 by adding resazurin to a final concentration of 50 μM to each well and incubating at physioxia for 3 hours. After three hours, media (120 μl) was transferred to a 96-well black plate (Greinerbio) and fluorescence read at an excitation of 535 nm and emission at 588 nm. At OT-2 (Opentrons) python-coded robotic pipette was used to add resazurin to cell plates as well as to transfer medium to black plates.

Sequence of butyrylcholinesterase (P06276 29-602): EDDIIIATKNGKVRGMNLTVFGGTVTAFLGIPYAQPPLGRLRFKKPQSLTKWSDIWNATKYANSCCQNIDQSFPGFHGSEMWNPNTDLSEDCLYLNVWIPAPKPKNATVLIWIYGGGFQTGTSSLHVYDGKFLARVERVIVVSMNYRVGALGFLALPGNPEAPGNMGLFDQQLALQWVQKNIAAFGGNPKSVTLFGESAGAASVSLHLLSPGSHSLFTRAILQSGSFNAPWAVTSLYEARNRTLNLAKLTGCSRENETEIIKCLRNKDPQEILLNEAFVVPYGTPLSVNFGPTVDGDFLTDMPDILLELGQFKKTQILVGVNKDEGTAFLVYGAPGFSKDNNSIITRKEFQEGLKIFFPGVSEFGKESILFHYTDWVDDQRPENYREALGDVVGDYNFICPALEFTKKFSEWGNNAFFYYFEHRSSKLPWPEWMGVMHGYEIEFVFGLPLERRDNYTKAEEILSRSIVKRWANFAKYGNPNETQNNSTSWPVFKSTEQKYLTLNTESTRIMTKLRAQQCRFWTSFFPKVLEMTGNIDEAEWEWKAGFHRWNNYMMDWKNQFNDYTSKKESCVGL

Promoline [Drug 84]: the “anti-microbial activity against Plasmodium falciparum” value in the series with Plasmodium falciparum is “weak anti-microbial activity”. In addition, the results for the “stimulation of type II collagen production in the screen of natural products” value in series [1] (listed as 84) and in series [1] (listed as Promoline) were “stimulatory effects; also recorded: stimulatory throughout the experiment” and “stimulate type II collagen”, respectively. Besides, the EC50 in series [1] (cumulative luminescence over 22 days) stood at 3.07 µM; in series [1] (day 3, 0-10 μM, read-out: EC50 type II collagen driven-luminescence), 2.46 µM; in series [1] (day 10, 0-10 μM, read-out: EC50 type II collagen driven-luminescence) it was 2.58 µM. In series [1] (natural product screen, day 8 volcano plot), the “stimulation of type II collagen production during the early stages” value was “stimulate type II collagen production during the early stages”. Further, in series [1] (screen, 5 μM, 1 ng/ml TGF-β1), the “day 22 luminescence normalized to DMSO vehicle control” value is on record as “significant increase in luminescence”. Further, the “trend of luminescence over 22 days normalized to DMSO” value in series [1] (screen, 5 μM, 1 ng/ml TGF-β1) is on record as “increase over the control as early as day 3 with a sustained increase in expression over 22 days”. The cumulative luminescence result in series [1] (donor 1) is recorded as “no significant effect”; in series [1] (donor 2) it was “significant increase”. The “glycosaminoglycan (GAG) content” value with HuCol2gLuc aggregates [2] (day 22, donor 1) was “not statistically significant”; in the series with HuCol2gLuc aggregates [2] (day 22, donor 2, untreated 15 μg), “decrease in GAG content”. Moreover, the total collagen entry with HuCol2gLuc aggregates [2] (day 22, donor 1) is “no observable effect”; in the series on HuCol2gLuc aggregates [2] (day 22, donor 2, untreated ~14 μg) it was around 21 µg. The DNA content result with HuCol2gLuc aggregates [2] (day 22, donor 2, vs untreated) was “no change in DNA content”; with HuCol2gLuc aggregates [2] (day 22, 10 μM), “significant decrease”. Besides, the “cytotoxicity in the KB cell line” value in the series with KB cell line is given as “low cytotoxicity”. The “AKT 1/2/3 phosphorylation at T308 and S473” value in series [3] was “substantial decrease”. In addition, the “p53 S15, STAT3 Y705 phosphorylation and HSP 60” value in series [3] is “less considerable decrease”. Moreover, in series [3], the “phosphorylation of CREB, EGFR, and eNOS” value was “modest increase”. Further, the inhibition of butyrylcholinesterase result at butyrylcholinesterase is recorded as “potent inhibitor”. The cytotoxicity result with HuCol2gLuc aggregates [4] (10 μM) is recorded as “cytotoxicity”. Also, the “resazurin fluorescence (metabolic activity)” value in the series with HuCol2gLuc aggregates [4] (0-10 μM) is reported as “dose dependent decrease”.
